According to patent US6358885B1, “Substituted phenylheterocyclic herbicides” (Mississippi State University, priority 1992, dated 2002):

What was measured:
lambsquarters = test: Test B preemergence/postemergence greenhouse plant response rating 0 to 10; format: in vivo, Chenopodium album; details: for Plant response rating, Lambsquarter: 0 to 10 scale
Procedure, shortened: (§1)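 Test chemicals were sprayed onto freshly planted seed and, concurrently, onto young plants between the one and four leaf stage. After a twelve- to sixteen-day greenhouse period, each species was visually compared with untreated controls.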

rice = test: as above; format: in vivo, Oryza sativa; details: for Plant response rating, Rice: 0 to 10 scale
Procedure, shortened: as §1

soybean = test: as above; format: in vivo, Glycine max; details: for Plant response rating, Soybean: 0 to 10 scale
Procedure, shortened: as §1

wheat = test: as above; format: in vivo, Triticum aestivum; details: for Plant response rating, Wheat: 0 to 10 scale
Procedure, shortened: as §1

wild buckwheat [1] = test: as above; format: in vivo, Polygonum convolvulus; details: for Plant response rating, Wild buckwheat: 0 to 10 scale
Procedure, shortened: as §1

wild oat = test: as above; format: in vivo, Avena fatua; details: for Plant response rating, Wild oat: 0 to 10 scale
Procedure, shortened: as §1

blackgrass = test: Test C preemergence/postemergence greenhouse plant response rating 0 to 100; format: in vivo, Alopecurus myosuroides; details: for Plant response rating, Blackgrass: 0 to 100 scale
Procedure, shortened: (§2)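 Compounds in non-phytotoxic solvent went onto sandy loam before emergence (seeded one day earlier) or onto plants at the one-to-four leaf stage. Duck salad was treated via flood water (~2.5 cm, maintained) over silt loam.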

downy brome = test: as above; format: in vivo, Bromus tectorum; details: for Plant response rating Downy Brome: 0 to 100 scale
Procedure, shortened: as §2

sorghum = test: as above; format: in vivo, Sorghum bicolor; details: for Plant response rating, Sorghum: 0 to 100 scale
Procedure, shortened: as §2

sugar beet = test: as above; format: in vivo, Beta vulgaris; details: for Plant response rating, Sugar beet: 0 to 100 scale
Procedure, shortened: as §2

wild buckwheat [2] = test: as above; format: in vivo, Polygonum convolvulus; details: for Plant response rating, Wild buckwheat: 0 to 100 scale
Procedure, shortened: as §2

barnyardgrass = test: Test C flood test plant response rating 0 to 100; format: in vivo, Echinochloa crus-galli; details: for Plant response rating Barnyardgrass 2: flood test species listed under POSTEMERGENCE, 0 to 100 scale
Procedure, shortened: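 Compounds in non-phytotoxic solvent applied preemergence to sandy loam one day after planting, postemergence at the 1–4 leaf stage, or to ~2.5 cm floodwater over silt loam.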

COCN1C(=O)COc2cc(F)c(-c3nn4c(c3Cl)CCCC4)cc21 [Compound 55]
Plant response rating, Lambsquarter (lambsquarters; POSTEMERGENCE, Rate 10 g/ha): 10 | Plant response rating, Lambsquarter (lambsquarters; POSTEMERGENCE, Rate 50 g/ha): 10 | Plant response rating, Lambsquarter (lambsquarters; PREEMERGENCE, Rate 50 g/ha): 10 | Plant response rating, Rice (rice; POSTEMERGENCE, Rate 10 g/ha): 3 | Plant response rating, Rice (rice; POSTEMERGENCE, Rate 50 g/ha): 4 | Plant response rating, Rice (rice; PREEMERGENCE, Rate 50 g/ha): 0 | Plant response rating, Soybean (soybean; POSTEMERGENCE, Rate 10 g/ha): 7 | Plant response rating, Soybean (soybean; POSTEMERGENCE, Rate 50 g/ha): 9 | Plant response rating, Soybean (soybean; PREEMERGENCE, Rate 50 g/ha): 0 | Plant response rating, Wheat (wheat; POSTEMERGENCE, Rate 10 g/ha): 8 | Plant response rating, Wheat (wheat; POSTEMERGENCE, Rate 50 g/ha): 6 | Plant response rating, Wheat (wheat; PREEMERGENCE, Rate 50 g/ha): 4 | Plant response rating, Wild buckwheat (wild buckwheat [1]; POSTEMERGENCE, Rate 10 g/ha): 10 | Plant response rating, Wild buckwheat (wild buckwheat [1]; POSTEMERGENCE, Rate 50 g/ha): 0 | Plant response rating, Wild buckwheat (wild buckwheat [1]; PREEMERGENCE, Rate 50 g/ha): 10 | Plant response rating, Wild oat (wild oat; POSTEMERGENCE, Rate 10 g/ha): 6 | Plant response rating, Wild oat (wild oat; POSTEMERGENCE, Rate 50 g/ha): 7 | Plant response rating, Wild oat (wild oat; PREEMERGENCE, Rate 50 g/ha): 9 | Plant response rating, Blackgrass (blackgrass; POSTEMERGENCE, 62 g/ha): 60 | Plant response rating (0 to 100), Blackgrass (blackgrass; POSTEMERGENCE, Rate 1 g/ha): 30 | Plant response rating (0 to 100), Blackgrass (blackgrass; POSTEMERGENCE, Rate 4 g/ha): 40 | Plant response rating (0 to 100), Blackgrass (blackgrass; Rate 16 g/ha, POSTEMERGENCE): 50 | Plant response rating Downy Brome (downy brome; POSTEMERGENCE, 62 g/ha): 70 | Plant response rating (0 to 100), Downy Brome (downy brome; POSTEMERGENCE, Rate 1 g/ha): 30 | Plant response rating (0 to 100), Downy Brome (downy brome; POSTEMERGENCE, Rate 4 g/ha): 40 | Plant response rating (0 to 100), Downy Brome (downy brome; Rate 16 g/ha, POSTEMERGENCE): 60 | Plant response rating, Sorghum (sorghum; POSTEMERGENCE, 62 g/ha): 60 | Plant response rating (0 to 100), Sorghum (sorghum; POSTEMERGENCE, Rate 1 g/ha): 30 | Plant response rating (0 to 100), Sorghum (sorghum; POSTEMERGENCE, Rate 4 g/ha): 40 | Plant response rating (0 to 100), Sorghum (sorghum; Rate 16 g/ha, POSTEMERGENCE): 50 | Plant response rating, Sugar beet (sugar beet; POSTEMERGENCE, 62 g/ha): 100 | Plant response rating (0 to 100), Sugar beet (sugar beet; POSTEMERGENCE, Rate 1 g/ha): 100 | Plant response rating (0 to 100), Sugar beet (sugar beet; POSTEMERGENCE, Rate 4 g/ha): 100 | Plant response rating (0 to 100), Sugar beet (sugar beet; Rate 16 g/ha, POSTEMERGENCE): 100 | Plant response rating, Wild buckwheat (wild buckwheat [2]; POSTEMERGENCE, 62 g/ha): 100 | Plant response rating (0 to 100), Wild buckwheat (wild buckwheat [2]; POSTEMERGENCE, Rate 1 g/ha): 60 | Plant response rating (0 to 100), Wild buckwheat (wild buckwheat [2]; POSTEMERGENCE, Rate 4 g/ha): 100 | Plant response rating (0 to 100), Wild buckwheat (wild buckwheat [2]; Rate 16 g/ha, POSTEMERGENCE): 100 | Plant response rating (0 to 100), Barnyardgrass 2 (barnyardgrass; POSTEMERGENCE section, flood test, Rate 1 g/ha): 10 | Plant response rating (0 to 100), Barnyardgrass 2 (barnyardgrass; POSTEMERGENCE section, flood test, Rate 4 g/ha): 60 | Plant response rating (0 to 100), Barnyardgrass 2 (barnyardgrass; Rate 16 g/ha, under POSTEMERGENCE head (flood test species)): 90 | Plant response rating Barnyardgrass 2 (barnyardgrass; 62 g/ha): 100

COCOc1cc(-c2nn3c(c2Cl)CCCC3)c(F)cc1Cl [Compound 58]
Plant response rating, Lambsquarter (lambsquarters; POSTEMERGENCE, Rate 50 g/ha): 10 | Plant response rating, Lambsquarter (lambsquarters; PREEMERGENCE, Rate 50 g/ha): 10 | Plant response rating (0 to 10 scale), Lambsquarter (lambsquarters; PREEMERGENCE, Rate 200 g/ha): 10 | Plant response rating, Lambsquarter (lambsquarters; Rate 200 g/ha, POSTEMERGENCE): 10 | Plant response rating, Rice (rice; POSTEMERGENCE, Rate 50 g/ha): 4 | Plant response rating, Rice (rice; PREEMERGENCE, Rate 50 g/ha): 0 | Plant response rating (0 to 10 scale), Rice (rice; PREEMERGENCE, Rate 200 g/ha): 0 | Plant response rating, Rice (rice; Rate 200 g/ha, POSTEMERGENCE): 5 | Plant response rating, Soybean (soybean; POSTEMERGENCE, Rate 50 g/ha): 7 | Plant response rating, Soybean (soybean; PREEMERGENCE, Rate 50 g/ha): 0 | Plant response rating (0 to 10 scale), Soybean (soybean; PREEMERGENCE, Rate 200 g/ha): 0 | Plant response rating, Soybean (soybean; Rate 200 g/ha, POSTEMERGENCE): 9 | Plant response rating, Wheat (wheat; POSTEMERGENCE, Rate 50 g/ha): 7 | Plant response rating, Wheat (wheat; PREEMERGENCE, Rate 50 g/ha): 2 | Plant response rating (0 to 10 scale), Wheat (wheat; PREEMERGENCE, Rate 200 g/ha): 7 | Plant response rating, Wheat (wheat; Rate 200 g/ha, POSTEMERGENCE): 8 | Plant response rating, Wild buckwheat (wild buckwheat [1]; POSTEMERGENCE, Rate 50 g/ha): 10 | Plant response rating, Wild buckwheat (wild buckwheat [1]; PREEMERGENCE, Rate 50 g/ha): 9 | Plant response rating (0 to 10 scale), Wild buckwheat (wild buckwheat [1]; PREEMERGENCE, Rate 200 g/ha): 10 | Plant response rating, Wild buckwheat (wild buckwheat [1]; Rate 200 g/ha, POSTEMERGENCE): 10 | Plant response rating, Wild oat (wild oat; POSTEMERGENCE, Rate 50 g/ha): 7 | Plant response rating, Wild oat (wild oat; PREEMERGENCE, Rate 50 g/ha): 6 | Plant response rating (0 to 10 scale), Wild oat (wild oat; PREEMERGENCE, Rate 200 g/ha): 9 | Plant response rating, Wild oat (wild oat; Rate 200 g/ha, POSTEMERGENCE): 9 | Plant response rating, Blackgrass (blackgrass; POSTEMERGENCE, 125 g/ha): 85 | Plant response rating (0 to 100), Blackgrass (blackgrass; POSTEMERGENCE, Rate 2 g/ha): 20 | Plant response rating, Blackgrass (blackgrass; PREEMERGENCE, 125 g/ha): 70 | Plant response rating (0 to 100), Blackgrass (blackgrass; PREEMERGENCE, Rate 2 g/ha): 0 | Plant response rating (0 to 100), Blackgrass (blackgrass; Rate 8 g/ha, POSTEMERGENCE): 50 | Plant response rating (0 to 100), Blackgrass (blackgrass; Rate 8 g/ha, PREEMERGENCE): 20 | Plant response rating (0 to 100), Blackgrass (blackgrass; Rate 31 g/ha, POSTEMERGENCE): 65 | Plant response rating (0 to 100), Blackgrass (blackgrass; Rate 31 g/ha, PREEMERGENCE): 60 | Plant response rating Downy Brome (downy brome; POSTEMERGENCE, 125 g/ha): 90 | Plant response rating (0 to 100), Downy Brome (downy brome; POSTEMERGENCE, Rate 2 g/ha): 20 | Plant response rating Downy Brome (downy brome; PREEMERGENCE, 125 g/ha): 70 | Plant response rating (0 to 100), Downy Brome (downy brome; PREEMERGENCE, Rate 2 g/ha): 0 | Plant response rating (0 to 100), Downy Brome (downy brome; Rate 8 g/ha, POSTEMERGENCE): 40 | Plant response rating (0 to 100), Downy Brome (downy brome; Rate 8 g/ha, PREEMERGENCE): 0 | Plant response rating (0 to 100), Downy Brome (downy brome; Rate 31 g/ha, POSTEMERGENCE): 70 | Plant response rating (0 to 100), Downy Brome (downy brome; Rate 31 g/ha, PREEMERGENCE): 30 | Plant response rating, Sorghum (sorghum; POSTEMERGENCE, 125 g/ha): 85 | Plant response rating (0 to 100), Sorghum (sorghum; POSTEMERGENCE, Rate 2 g/ha): 30 | Plant response rating, Sorghum (sorghum; PREEMERGENCE, 125 g/ha): 20 | Plant response rating (0 to 100), Sorghum (sorghum; PREEMERGENCE, Rate 2 g/ha): 0 | Plant response rating (0 to 100), Sorghum (sorghum; Rate 8 g/ha, POSTEMERGENCE): 50 | Plant response rating (0 to 100), Sorghum (sorghum; Rate 8 g/ha, PREEMERGENCE): 0 | Plant response rating (0 to 100), Sorghum (sorghum; Rate 31 g/ha, POSTEMERGENCE): 50 | Plant response rating (0 to 100), Sorghum (sorghum; Rate 31 g/ha, PREEMERGENCE): 10 | Plant response rating, Sugar beet (sugar beet; POSTEMERGENCE, 125 g/ha): 100 | Plant response rating (0 to 100), Sugar beet (sugar beet; POSTEMERGENCE, Rate 2 g/ha): 100 | Plant response rating, Sugar beet (sugar beet; PREEMERGENCE, 125 g/ha): 100 | Plant response rating (0 to 100), Sugar beet (sugar beet; PREEMERGENCE, Rate 2 g/ha): 10 | Plant response rating (0 to 100), Sugar beet (sugar beet; Rate 8 g/ha, POSTEMERGENCE): 100 | Plant response rating (0 to 100), Sugar beet (sugar beet; Rate 8 g/ha, PREEMERGENCE): 85 | Plant response rating (0 to 100), Sugar beet (sugar beet; Rate 31 g/ha, POSTEMERGENCE): 100 | Plant response rating (0 to 100), Sugar beet (sugar beet; Rate 31 g/ha, PREEMERGENCE): 90 | Plant response rating, Wild buckwheat (wild buckwheat [2]; POSTEMERGENCE, 125 g/ha): 100 | Plant response rating (0 to 100), Wild buckwheat (wild buckwheat [2]; POSTEMERGENCE, Rate 2 g/ha): 100 | Plant response rating, Wild buckwheat (wild buckwheat [2]; PREEMERGENCE, 125 g/ha): 100 | Plant response rating (0 to 100), Wild buckwheat (wild buckwheat [2]; PREEMERGENCE, Rate 2 g/ha): 0 | Plant response rating (0 to 100), Wild buckwheat (wild buckwheat [2]; Rate 8 g/ha, POSTEMERGENCE): 100 | Plant response rating (0 to 100), Wild buckwheat (wild buckwheat [2]; Rate 8 g/ha, PREEMERGENCE): 40 | Plant response rating (0 to 100), Wild buckwheat (wild buckwheat [2]; Rate 31 g/ha, POSTEMERGENCE): 100 | Plant response rating (0 to 100), Wild buckwheat (wild buckwheat [2]; Rate 31 g/ha, PREEMERGENCE): 100 | Plant response rating (0 to 100), Barnyardgrass 2 (barnyardgrass; POSTEMERGENCE section, flood test, Rate 2 g/ha): 0 | Plant response rating (0 to 100), Barnyardgrass 2 (barnyardgrass; Rate 8 g/ha, under POSTEMERGENCE head (flood test species)): 95 | Plant response rating (0 to 100), Barnyardgrass 2 (barnyardgrass; Rate 31 g/ha, under POSTEMERGENCE head (flood test species)): 100 | Plant response rating Barnyardgrass 2 (barnyardgrass; 125 g/ha): 100
